From patent US6479531B1, “Gastrin and cholecystokinin receptor ligands” (James Black Foundation Limited, priority 1998, dated 2002) come the findings set out here.

One assay addresses T1, CCKB receptor (Mus musculus, UniProt P56481).
T1 construct: The whole brains from male mice (CD1 22-25 g; Charles River) were removed; from tissue; host or cells: cerebral cortex membranes of male CD1 mice
T1 sequence (P56481 1-453): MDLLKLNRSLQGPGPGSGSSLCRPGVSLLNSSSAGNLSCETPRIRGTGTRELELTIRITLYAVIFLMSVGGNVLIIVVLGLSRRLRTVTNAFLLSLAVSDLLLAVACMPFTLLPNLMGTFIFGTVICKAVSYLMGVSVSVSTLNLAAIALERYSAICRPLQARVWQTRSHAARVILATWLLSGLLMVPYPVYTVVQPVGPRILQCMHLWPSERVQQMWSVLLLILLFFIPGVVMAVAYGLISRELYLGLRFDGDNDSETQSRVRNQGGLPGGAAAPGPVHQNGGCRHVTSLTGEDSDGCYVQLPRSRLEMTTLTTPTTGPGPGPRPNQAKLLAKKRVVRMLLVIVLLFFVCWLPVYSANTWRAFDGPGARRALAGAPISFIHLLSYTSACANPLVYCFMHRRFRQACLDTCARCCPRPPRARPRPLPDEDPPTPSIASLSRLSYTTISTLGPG
Description: CCKB receptor radioligand binding assay in mouse cortical membranes. The settings on record: [125I]-CCK8(S) 200 pM, 150 min at 21±3°; for Ki: read-out: CCKB pKi (converted). In short, it runs like this:
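Bound radioactivity was gamma-counted after rapid GF/B filtration and cold 50 mM Tris-HCl (pH 7.4) washes. The tissue was cerebral cortex from male CD1 mice, prepared as twice-centrifuged membranes in pH 7.2 HEPES/NaCl/KCl/MgCl2/EDTA buffer with bacitracin at 20 mg/ml original wet weight.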

In another assay the target is T2, gastrin receptor (Rattus norvegicus, UniProt P30553).
T2 construct: The stomach was excised and flushed with ca. 1 ml of unbuffered physiological saline solution; from tissue; host or cells: isolated whole stomach of immature rats (ca. 21 days old)
T2 sequence (P30553 1-452): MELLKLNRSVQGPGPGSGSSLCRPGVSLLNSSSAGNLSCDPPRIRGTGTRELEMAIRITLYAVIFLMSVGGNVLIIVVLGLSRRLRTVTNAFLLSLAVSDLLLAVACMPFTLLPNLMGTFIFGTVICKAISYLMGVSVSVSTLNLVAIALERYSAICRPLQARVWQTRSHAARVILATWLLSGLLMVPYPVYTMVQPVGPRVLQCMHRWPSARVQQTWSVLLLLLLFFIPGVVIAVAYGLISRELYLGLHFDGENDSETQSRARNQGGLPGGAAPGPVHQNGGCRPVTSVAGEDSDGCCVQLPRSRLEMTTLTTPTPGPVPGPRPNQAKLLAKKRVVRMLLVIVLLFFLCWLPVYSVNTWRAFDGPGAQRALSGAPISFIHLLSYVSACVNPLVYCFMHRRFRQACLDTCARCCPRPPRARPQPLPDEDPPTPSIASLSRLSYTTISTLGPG
Description: gastrin antagonist activity in immature rat stomach assay (pentagastrin dose-response, acid secretion). The note with it: isolated immature rat stomach, cumulative pentagastrin dose-response curves; for Kb: read-out: Gastrin pKb (converted). In short, it runs like this: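 Isolated, lumen-perfused stomach from immature rats (33-50 g, ca. 21 days) in a 37° organ bath with 3×10^−8 M 5-methylfurmethide, gassed 95% O2/5% CO2. Compound added serosally after 120 min stabilisation; cumulative pentagastrin dose-response curves begun 60 min later, acid secretion followed by perfusate pH.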

On to `CN(C)c1ccc(-c2nc(C(=O)Nc3cccc(C(=O)O)c3)c(CCC34CC5CC(CC(C5)C3)C4)[nH]2)cc1` [Example 72, 3-{[5-(2-Adamantan-1-yl-ethyl)-2-(4-dimethylamino-phenyl)-1H-imidazole-4-carbonyl]-amino}-benzoic Acid], for which the Ki at CCKB receptor is 295 nM. At gastrin receptor, the Kb is 1230 nM.
Consider `O=C(O)c1cccc(NC(=O)c2nc(C3CCCCC3)[nH]c2CCC2C3CC4CC(C3)CC2C4)c1` (stereo not shown) [Example 172, 3-{[5-(2-Adamantan-2-yl-ethyl)-2-cyclohexyl-1H-imidazole-4-carbonyl]-amino}-benzoic Acid], for which the Ki at CCKB receptor was 21.4 nM. In addition, the Kb at gastrin receptor is 3.72 nM.
`O=C(O)c1cccc(NC(=O)c2nc(-c3ccccc3)[nH]c2CC2CCCCCC2)c1` [Example 26, 3-[(5-Cycloheptylmethyl-2-phenyl-1H-imidazole-4-carbonyl)-amino]-benzoic Acid]: the Ki on CCKB receptor was 1480 nM. The Kb on gastrin receptor was 407 nM.
As to `CC(C)(C)c1nc(C(=O)Nc2cccc(C(=O)O)c2)c(CCC23CC4CC(CC(C4)C2)C3)[nH]1` [Example 80, 3-{[5-(2-Adamantan-1-yl-ethyl)-2-tert-butyl-1H-imidazole-4-carbonyl]-amino}-benzoic Acid], at CCKB receptor, the Ki is 67.6 nM. For the same compound, on gastrin receptor, the Kb was 11 nM.
Regarding `COc1cccc(-c2nc(C(=O)Nc3cccc(C(=O)O)c3)c(CCC3CCCCCC3)[nH]2)c1` [Example 42, 3-{[5-(2-Cycloheptyl-ethyl)-2-(3-methoxy-phenyl)-1H-imidazole-4-carbonyl]-amino}-benzoic Acid], the Ki on CCKB receptor was 1510 nM. Besides, the Kb on gastrin receptor is 50.1 nM.
In the case of `O=C(O)c1cccc(NC(=O)c2[nH]c(C3CCCC3)nc2CCC23CC4CC(CC(C4)C2)C3)c1` [Example 196, 3-{[5-(2-Adamantan-1-ethyl)-2-cyclopentyl-1H-imidazole-4-carbonyl]-amino}-benzoic Acid], the Ki at CCKB receptor was 38 nM. Further, the Kb on gastrin receptor was 7.08 nM.
Consider `Cc1ccc(NC(=O)c2nc(-c3ccccc3C)[nH]c2CCC2CCCCC2)cc1C(=O)O` [Example 169, 5-{[5-(2-Cyclohexyl-ethyl)-2-o-tolyl-1H-imidazole-4-carbonyl]-amino}-2-methyl-benzoic Acid], for which the Ki on CCKB receptor is 132 nM. Also, the Kb on gastrin receptor is 75.9 nM.
`Cc1ccccc1-c1nc(C(=O)Nc2ccc(Cl)c(C(=O)O)c2)c(CCC23CC4CC(CC(C4)C2)C3)[nH]1` [Example 245, 5-{[5-(2-Adamantan-1-yl-ethyl)-2-o-tolyl-1H-imidazole-4-carbonyl]-amino}-2-chloro-benzoic Acid]: the Ki on CCKB receptor was 6.46 nM. In addition, at gastrin receptor, the Kb is 240 nM.
Turning to `O=C(O)c1cccc(NC(=O)c2nc(-c3cccnc3)[nH]c2CCC23CC4CC(CC(C4)C2)C3)c1` [Example 177, 3-{[5-(2-Adamantan-1-yl-ethyl)-2-pyridine-3-yl-1H-imidazole-4-carbonyl]-amino}-benzoic Acid], the Ki on CCKB receptor is 603 nM. The Kb on gastrin receptor is 151 nM.
On to `Cc1ccc(NC(=O)c2nc(C3CCCCC3)[nH]c2CCC23CC4CC(CC(C4)C2)C3)cc1C(=O)O` [Example 135, 5-{[5-(2-Adamantan-1-yl-ethyl)-2-cyclohexyl-1H-imidazole-4-carbonyl]-amino}-2-methyl-benzoic Acid], for which the Ki on CCKB receptor is 6.17 nM. The Kb on gastrin receptor is 22.4 nM.
Taken in the same sequence, the figures for `CCCC(CCC)c1nc(C(=O)Nc2cccc(C(=O)O)c2)c(CCC23CC4CC(CC(C4)C2)C3)[nH]1` [Example 125, 3-{[5-(2-Adamantan-1-yl-ethyl)-2-(1-propyl-butyl)-1H-imidazole-4-carbonyl]-amino}-benzoic Acid] were 105 nM and 2.29 nM.
“5-[(2-Cycloheptylmethyl--phenyl-1H-pyrrole-3-carbonyl)-amino]-isophthalic Acid [Example 13]”: the “CCKB pKi” value on CCKB receptor came to 6.44. For the same compound, at gastrin receptor, the “Gastrin pKb” value is listed as 6.21.
As for `O=C(O)c1cc(NC(=O)c2cc(-c3ccccc3)[nH]c2CC23CC4CC(CC(C4)C2)C3)cc(C(=O)O)c1` [Example 1, 5-[(2-Adamantan-1-ylmethyl-5-phenyl-1H-pyrrole-3-carbonyl)-amino]-isophthalic Acid], the Ki at CCKB receptor was 191 nM. At gastrin receptor, the Kb is 468 nM.
With `Cc1ccc(NC(=O)c2nc(C(C)(C)C)[nH]c2CCC23CC4CC(CC(C4)C2)C3)cc1C(=O)O` [Example 198, 5-{[5-(2-Adamantan-1-yl-ethyl)-2-tert-butyl-1H-imidazole-4-carbonyl]-amino}-2-methyl-benzoic Acid], on CCKB receptor, the Ki is 8.71 nM. Also, the Kb on gastrin receptor was 8.13 nM.
Turning to `CC(C)CN1CCC[C@@H]1c1nc(C(=O)Nc2cccc(C(=O)O)c2)c(CCC23CC4CC(CC(C4)C2)C3)[nH]1` [Example 144, (R)-3-{[5-(2-Adamantan-1-yl-ethyl)-2-[1-(2-methyl-propyl)-pyrrolidin-2-yl]-1H-imidazole-4-carbonyl]-amino}-benzoic Acid], the Ki at CCKB receptor is 437 nM. Besides, at gastrin receptor, the Kb is 14.1 nM.
As for `O=C(O)c1cccc(NC(=O)c2nc(-c3cccc(Cl)c3Cl)[nH]c2CCC23CC4CC(CC(C4)C2)C3)c1` [Example 69, 3-{[5-(2-Adamantan-1-yl-ethyl)-2-(2,3-dichloro-phenyl)-1H-imidazole-4-carbonyl]-amino}-benzoic Acid], on CCKB receptor, the Ki was 398 nM. Further, the Kb at gastrin receptor was 89.1 nM.
With `CC(C)C1CCC(c2nc(C(=O)Nc3cccc(C(=O)O)c3)c(CCC34CC5CC(CC(C5)C3)C4)[nH]2)CC1` (stereo not shown) [Example 194, 3-{[5-(2-Adamantan-1-yl-ethyl)-2-(4-isopropyl-cyclohexyl)-1H-imidazole-4-carbonyl]-amino}-benzoic Acid], the Ki at CCKB receptor is 158 nM. Further, the Kb on gastrin receptor is 525 nM.
Regarding `CC(C)(C)Cc1nc(C(=O)Nc2cccc(C(=O)O)c2)c(CCC23CC4CC(CC(C4)C2)C3)[nH]1` [Example 111, 3-{[5-(2-Adamantan-1-yl-ethyl)-2-(2,2-dimethyl-propyl)-1H-imidazole-4-carbonyl]-amino}-benzoic Acid], on CCKB receptor, the Ki is 91.2 nM. Further, the Kb on gastrin receptor was 41.7 nM.
Turning to `O=C(O)c1cccc(NC(=O)c2nc(-c3ccccn3)[nH]c2CCC23CC4CC(CC(C4)C2)C3)c1` [Example 178, 3-{[5-(2-Adamantan-1-yl-ethyl)-2-pyridine-2-yl-1H-imidazole-4-carbonyl]-amino}-benzoic Acid], the Ki at CCKB receptor was 245 nM. For the same compound, the Kb on gastrin receptor is 166 nM.
`CCCC(CCC)c1nc(C(=O)Nc2ccc(C)c(C(=O)O)c2)c(CCC23CC4CC(CC(C4)C2)C3)[nH]1` [Example 126, 5-{[5-(2-Adamantan-1-yl-ethyl)-2-(1-propyl-butyl)-1H-imidazole-4-carbonyl]-amino}-2-methyl-benzoic Acid]: the Ki on CCKB receptor is 21.9 nM. Further, the Kb at gastrin receptor is 15.8 nM.
Consider `CN(C)c1cccc(-c2nc(C(=O)Nc3cccc(C(=O)O)c3)c(CCC34CC5CC(CC(C5)C3)C4)[nH]2)c1` [Example 71, 3-{[5-(2-Adamantan-1-yl-ethyl)-2-(3-dimethylamino-phenyl)-1H-imidazole-4-carbonyl]-amino}-benzoic Acid], for which the Ki at CCKB receptor was 186 nM. Further, on gastrin receptor, the Kb was 794 nM.
For `CC1(C)C2CCC(c3nc(C(=O)Nc4cccc(C(=O)O)c4)c(CCC45CC6CC(CC(C6)C4)C5)[nH]3)C1C2` (stereo not shown) [Example 190, 3-{[5-(2-Adamantan-1-yl-ethyl)-2-(6,6-dimethyl-bicyclo[3.1.1]hept-2-yl)-1H-imidazole-4-carbonyl]-amino}-benzoic Acid], in that order: 174 nM and 4.17 nM.
Taken in the same sequence, the figures for `Cc1ccccc1-c1nc(C(=O)Nc2ccc(Br)c(C(=O)O)c2)c(CCC23CC4CC(CC(C4)C2)C3)[nH]1` [Example 246, 5-{[5-(2-Adamantan-1-yl-ethyl)-2-o-tolyl-1H-imidazole-4-carbonyl]-amino}-2-bromo-benzoic Acid] were 3.63 nM and 832 nM.
